Measured values: ChEMBL document CHEMBL3988442, “University of Dundee, Small-Polar-MMV Screening Library” (2021)
Values joined by “and” are separate entries in the source; they are usually repeats but may differ in a detail not shown here. Equal values may be shown once.

Key:
Histidine--tRNA ligase [1] = target: T1, Histidine--tRNA ligase (Trypanosoma cruzi (strain CL Brener), UniProt Q4DA54); assay: Trypanosoma cruzi histidyl tRNA synthetase (Tc-HisRS); type: functional
T1 sequence (Q4DA54 whole entry): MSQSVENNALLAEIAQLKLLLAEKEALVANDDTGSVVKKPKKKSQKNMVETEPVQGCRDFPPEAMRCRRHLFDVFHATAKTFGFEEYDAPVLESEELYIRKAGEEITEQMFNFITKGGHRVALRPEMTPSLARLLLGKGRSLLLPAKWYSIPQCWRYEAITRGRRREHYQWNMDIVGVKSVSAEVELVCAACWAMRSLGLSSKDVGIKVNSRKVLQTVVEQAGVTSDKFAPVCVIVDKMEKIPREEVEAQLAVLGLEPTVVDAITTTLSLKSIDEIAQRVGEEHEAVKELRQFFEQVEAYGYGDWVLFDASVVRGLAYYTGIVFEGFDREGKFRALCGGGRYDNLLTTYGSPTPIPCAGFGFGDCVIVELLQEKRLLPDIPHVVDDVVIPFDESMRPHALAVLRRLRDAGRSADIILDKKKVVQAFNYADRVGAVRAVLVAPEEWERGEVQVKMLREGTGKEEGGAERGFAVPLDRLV

Histidine--tRNA ligase [2] = target: T2, Histidine--tRNA ligase (Leishmania infantum, UniProt A4I591); assay: Leishmania infantum Histidine tRNA synthetase (LdHisRS); type: functional
T2 sequence (A4I591 whole entry): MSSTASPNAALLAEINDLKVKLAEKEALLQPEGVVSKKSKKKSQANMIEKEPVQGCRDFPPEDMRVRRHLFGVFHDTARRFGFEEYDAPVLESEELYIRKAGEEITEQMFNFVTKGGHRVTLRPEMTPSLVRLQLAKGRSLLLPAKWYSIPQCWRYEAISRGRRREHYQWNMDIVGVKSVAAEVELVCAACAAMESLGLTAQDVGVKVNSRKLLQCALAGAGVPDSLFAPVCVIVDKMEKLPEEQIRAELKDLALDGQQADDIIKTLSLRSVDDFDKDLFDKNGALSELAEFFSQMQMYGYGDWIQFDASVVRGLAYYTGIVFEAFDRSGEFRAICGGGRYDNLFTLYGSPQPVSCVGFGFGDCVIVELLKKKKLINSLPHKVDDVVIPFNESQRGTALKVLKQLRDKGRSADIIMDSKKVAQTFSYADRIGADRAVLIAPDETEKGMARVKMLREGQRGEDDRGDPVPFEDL

[3] = target: T3, Coenzyme A biosynthesis bifunctional protein CoaBC (Mycobacterium tuberculosis (strain ATCC 25618 / H37Rv), UniProt P9WNZ1); assay: Biomol Green assay for MtCoaBC inhibitor, OD650 read; type: functional
T3 sequence (P9WNZ1 whole entry): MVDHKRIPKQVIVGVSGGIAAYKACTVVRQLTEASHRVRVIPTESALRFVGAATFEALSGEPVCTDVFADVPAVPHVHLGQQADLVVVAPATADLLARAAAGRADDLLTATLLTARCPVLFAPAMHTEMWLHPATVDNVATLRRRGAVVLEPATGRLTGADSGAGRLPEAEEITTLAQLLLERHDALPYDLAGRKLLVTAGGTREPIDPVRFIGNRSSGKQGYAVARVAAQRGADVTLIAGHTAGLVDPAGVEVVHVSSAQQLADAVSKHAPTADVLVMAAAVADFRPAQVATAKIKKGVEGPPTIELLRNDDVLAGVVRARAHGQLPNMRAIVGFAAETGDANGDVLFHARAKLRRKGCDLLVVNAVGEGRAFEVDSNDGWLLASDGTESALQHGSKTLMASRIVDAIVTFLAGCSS

Trypanosoma brucei = assay: Trypanosoma brucei 72 hour study; type: functional, organism-based; conditions: for IC50: Trypanosoma brucei, 72 h
[4] = target: T4, Ubiquitin-activating enzyme e1, putative (Leishmania donovani (strain BPK282A1), UniProt E9BSI1); assay: Leishmania donovani Ubiquitin Activating Enzyme (LdE1); type: functional
T4 sequence (E9BSI1 whole entry): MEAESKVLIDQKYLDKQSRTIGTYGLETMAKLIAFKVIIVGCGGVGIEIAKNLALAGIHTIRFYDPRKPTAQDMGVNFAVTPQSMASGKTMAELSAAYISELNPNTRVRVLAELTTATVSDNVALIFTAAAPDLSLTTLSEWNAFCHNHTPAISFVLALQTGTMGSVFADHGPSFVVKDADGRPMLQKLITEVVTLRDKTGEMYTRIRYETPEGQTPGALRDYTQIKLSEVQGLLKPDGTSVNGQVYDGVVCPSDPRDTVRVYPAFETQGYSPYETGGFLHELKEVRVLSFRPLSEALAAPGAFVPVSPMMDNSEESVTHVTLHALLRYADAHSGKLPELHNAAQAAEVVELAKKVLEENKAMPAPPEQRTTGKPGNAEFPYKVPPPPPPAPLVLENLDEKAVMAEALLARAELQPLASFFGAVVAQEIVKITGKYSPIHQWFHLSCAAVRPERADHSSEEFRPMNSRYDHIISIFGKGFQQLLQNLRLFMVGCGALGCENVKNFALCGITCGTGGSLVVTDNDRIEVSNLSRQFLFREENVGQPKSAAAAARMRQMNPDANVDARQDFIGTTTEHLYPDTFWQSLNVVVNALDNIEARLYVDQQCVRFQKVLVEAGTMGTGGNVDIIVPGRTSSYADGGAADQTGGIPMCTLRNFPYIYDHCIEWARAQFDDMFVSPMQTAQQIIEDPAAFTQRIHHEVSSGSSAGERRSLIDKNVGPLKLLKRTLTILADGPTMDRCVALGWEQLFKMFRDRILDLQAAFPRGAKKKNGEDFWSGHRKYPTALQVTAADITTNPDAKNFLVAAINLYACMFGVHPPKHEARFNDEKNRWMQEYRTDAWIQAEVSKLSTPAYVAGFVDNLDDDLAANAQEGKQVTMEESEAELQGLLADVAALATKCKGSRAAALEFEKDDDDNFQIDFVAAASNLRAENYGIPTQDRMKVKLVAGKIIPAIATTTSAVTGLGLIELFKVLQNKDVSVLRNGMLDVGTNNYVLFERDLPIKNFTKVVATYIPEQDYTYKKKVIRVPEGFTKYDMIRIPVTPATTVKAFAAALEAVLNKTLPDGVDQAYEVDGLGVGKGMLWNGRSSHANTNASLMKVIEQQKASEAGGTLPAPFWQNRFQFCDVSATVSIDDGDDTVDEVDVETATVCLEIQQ

Lysine--tRNA ligase = Lysine--tRNA ligase (Plasmodium falciparum (isolate 3D7), UniProt Q8IDJ8); assay: Pf-KRS-1 (Lysyl-RNA Synthetase-1, KRS-1, cytosolic KRS) from Plasmodium falciparum. Inhibitor assay, 384 well plate, luminescence read.; type: functional
Chain of Lysine--tRNA ligase (Q8IDJ8 whole entry): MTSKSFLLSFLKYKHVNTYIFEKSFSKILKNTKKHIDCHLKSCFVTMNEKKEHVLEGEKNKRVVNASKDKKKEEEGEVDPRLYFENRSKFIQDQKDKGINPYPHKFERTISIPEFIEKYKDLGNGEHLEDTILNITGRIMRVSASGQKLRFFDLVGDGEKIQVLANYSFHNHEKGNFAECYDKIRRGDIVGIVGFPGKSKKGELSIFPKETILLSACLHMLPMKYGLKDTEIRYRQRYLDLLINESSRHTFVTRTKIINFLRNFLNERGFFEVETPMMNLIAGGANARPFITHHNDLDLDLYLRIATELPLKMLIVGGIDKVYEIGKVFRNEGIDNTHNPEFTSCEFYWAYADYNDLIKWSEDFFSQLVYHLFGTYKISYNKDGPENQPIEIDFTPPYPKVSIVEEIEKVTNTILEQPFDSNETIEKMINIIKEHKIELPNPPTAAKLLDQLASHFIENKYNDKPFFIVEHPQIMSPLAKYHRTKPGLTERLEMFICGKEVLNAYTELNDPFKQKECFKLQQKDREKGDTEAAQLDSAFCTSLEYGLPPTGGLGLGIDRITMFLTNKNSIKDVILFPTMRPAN

[5] = target: Polyketide synthase Pks13 (Mycobacterium tuberculosis (strain ATCC 25618 / H37Rv), UniProt I6X8D2); assay: Mycobacterium tuberculosis Polyketide synthase 13 Thioesterase (PKS13); type: functional
Chain of Polyketide synthase Pks13 (I6X8D2 whole entry): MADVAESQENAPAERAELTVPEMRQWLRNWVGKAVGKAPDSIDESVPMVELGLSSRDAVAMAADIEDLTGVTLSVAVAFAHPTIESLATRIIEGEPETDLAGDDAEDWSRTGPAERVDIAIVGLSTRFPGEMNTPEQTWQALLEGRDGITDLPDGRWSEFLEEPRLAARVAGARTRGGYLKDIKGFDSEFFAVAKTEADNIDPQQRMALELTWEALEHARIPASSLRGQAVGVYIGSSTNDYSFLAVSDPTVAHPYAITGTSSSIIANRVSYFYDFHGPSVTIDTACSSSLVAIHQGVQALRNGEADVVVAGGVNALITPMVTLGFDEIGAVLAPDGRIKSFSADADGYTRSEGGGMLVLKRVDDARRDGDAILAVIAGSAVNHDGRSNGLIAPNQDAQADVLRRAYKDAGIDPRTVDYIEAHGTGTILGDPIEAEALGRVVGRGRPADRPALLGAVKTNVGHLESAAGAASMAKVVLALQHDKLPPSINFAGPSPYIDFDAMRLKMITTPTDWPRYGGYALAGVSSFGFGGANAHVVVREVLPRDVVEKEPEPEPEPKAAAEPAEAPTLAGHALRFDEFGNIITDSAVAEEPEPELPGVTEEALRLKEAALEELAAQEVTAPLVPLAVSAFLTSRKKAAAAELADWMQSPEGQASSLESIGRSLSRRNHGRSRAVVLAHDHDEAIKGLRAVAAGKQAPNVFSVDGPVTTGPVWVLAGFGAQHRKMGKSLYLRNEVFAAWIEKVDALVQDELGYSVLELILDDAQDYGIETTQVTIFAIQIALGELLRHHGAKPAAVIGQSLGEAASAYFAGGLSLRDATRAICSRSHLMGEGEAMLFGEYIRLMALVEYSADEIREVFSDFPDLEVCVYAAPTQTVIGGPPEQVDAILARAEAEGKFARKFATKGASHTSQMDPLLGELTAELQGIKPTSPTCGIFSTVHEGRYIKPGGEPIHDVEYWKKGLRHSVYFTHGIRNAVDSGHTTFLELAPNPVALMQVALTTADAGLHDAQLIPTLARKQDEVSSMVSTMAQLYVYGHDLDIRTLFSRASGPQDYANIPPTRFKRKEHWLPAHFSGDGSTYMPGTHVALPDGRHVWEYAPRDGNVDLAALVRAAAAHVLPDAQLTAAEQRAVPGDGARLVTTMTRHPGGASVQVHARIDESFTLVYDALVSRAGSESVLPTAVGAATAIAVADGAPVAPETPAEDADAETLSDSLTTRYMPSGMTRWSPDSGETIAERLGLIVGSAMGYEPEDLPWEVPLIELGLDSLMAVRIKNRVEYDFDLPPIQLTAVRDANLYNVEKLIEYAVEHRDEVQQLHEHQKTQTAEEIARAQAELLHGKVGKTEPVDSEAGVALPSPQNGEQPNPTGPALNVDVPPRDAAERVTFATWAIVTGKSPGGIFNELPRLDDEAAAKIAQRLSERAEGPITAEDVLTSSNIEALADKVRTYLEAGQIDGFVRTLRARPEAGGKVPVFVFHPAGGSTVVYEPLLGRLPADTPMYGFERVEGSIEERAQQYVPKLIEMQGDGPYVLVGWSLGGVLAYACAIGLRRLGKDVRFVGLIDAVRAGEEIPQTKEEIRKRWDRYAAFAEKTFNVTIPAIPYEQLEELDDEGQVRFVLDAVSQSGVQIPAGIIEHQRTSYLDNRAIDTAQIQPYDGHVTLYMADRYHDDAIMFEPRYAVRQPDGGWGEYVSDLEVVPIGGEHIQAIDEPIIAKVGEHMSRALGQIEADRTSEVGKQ

[6] = tested on: Mycobacterium tuberculosis; assay: Cornell M. t heat shock assay; type: functional, organism-based; conditions: Mycobacterium tuberculosis
Plasmodium falciparum = assay: Calibr Malaria Delayed Death Assay SOP; type: functional, organism-based; conditions: for IC50: Plasmodium falciparum
[7] = microbe, parasite or virus in culture; conditions: Mycobacterium tuberculosis, 72 h, read-out: pIC50 (converted)
[8] = microbe, parasite or virus in culture; conditions: Mycobacterium tuberculosis, 96 h, read-out: pIC50 (converted)

Compound	IC50 (Histidine--tRNA ligase [1])	IC50 (Histidine--tRNA ligase [2])	IC50 (Lysine--tRNA ligase)	further results
CNc1cc(-c2ccccc2CN)c2cc[nH]c2n1	22.6 µM and 37.8 µM	10.6 µM and 10.1 µM		IC50 [3]: > 30.2 µM
O=C(NCCc1coc(-c2ccc(F)cc2)n1)NC1CC1				pIC50 (Trypanosoma brucei): 5.662 and 5.643; IC50 (Trypanosoma brucei): 2.17 µM
Cn1cc(NC(=O)C2CC(c3ccccc3)C2)ccc1=O (centres undefined)	8.22 µM	8.88 µM and 10.5 µM		IC50 [4]: > 100 µM
COc1cccn(CC(=O)N2CCC3(CCNCC3)C2)c1=O	6.27 µM and 15.2 µM	3.66 µM and 3.72 µM	> 50.1 µM	
Cc1cc(=O)n(C)cc1NC(=O)Cc1cccc(F)c1	6.21 µM	7.6 µM and 8.67 µM	> 50.1 µM	
Cc1cnc(N2CCC3(CCN(CC4CC4)C3=O)CC2)nc1	> 100 µM			IC50 [5]: > 100 µM
CCOC1CCCN(C(=O)NCCc2ccn(-c3ccccc3)n2)C1 (centres undefined)				pIC50 (Trypanosoma brucei): 6.745 and 6.727; IC50 (Trypanosoma brucei): 0.141 µM
Cc1cc(=O)n(C)cc1NC(=O)Cc1cc(F)ccc1F	21.1 µM	1.69 µM and 2.09 µM and 0.814 µM and 0.806 µM	> 50.1 µM	
CCCn1cc(NC(=O)c2ccc(S(C)(=O)=O)cc2)ccc1=O	21.5 µM and 19.6 µM	1.71 µM and 0.847 µM and 0.944 µM and 1.37 µM	> 50.1 µM	
Cc1cc(=O)n(C)cc1NC(=O)Cc1cccc(Cl)c1	4.77 µM	5 µM and 6.56 µM	> 50.1 µM	
Cn1cc(NC(=O)N2CCCC2c2ccccn2)ccc1=O (centres undefined)	9.32 µM and 9.24 µM	2.71 µM and 1.57 µM and 2.82 µM and 1.51 µM	> 50.1 µM	
Cc1cc(=O)n(C)cc1NC(=O)NCc1cccc(F)c1	9.43 µM and 9.23 µM	6.8 µM and 6.63 µM	> 50.1 µM	
c1ccc(N2CCCC3(COCCN(c4nccs4)C3)C2)nc1 (centres undefined)	73.9 µM and 71.8 µM			IC50 [3]: > 30.2 µM
Cn1cc(NC(=O)N2CCC(OCc3ccccc3)CC2)ccc1=O	17 µM and 14.8 µM	11.6 µM and 6.66 µM		IC50 [4]: > 100 µM
COc1ccc(CNC(=O)Nc2ccc(=O)n(C)c2)cc1	5.8 µM and 5.68 µM	1.74 µM and 2.25 µM and 1.76 µM and 2.08 µM	> 50.1 µM	
Cc1cc(C)n(CC2CCCN2Cc2nc(N)c3ccccc3n2)n1 (centres undefined)	> 100 µM			IC50 [6]: > 100 µM

Compound	IC50 (Histidine--tRNA ligase [1])	IC50 (Histidine--tRNA ligase [2])	IC50 (Lysine--tRNA ligase)	further results
CCCn1cc(NC(=O)c2ccc(S(=O)(=O)CC)cc2)ccc1=O	2.37 µM and 2.75 µM	1.47 µM and 1.05 µM and 2.81 µM and 2.06 µM	> 50.1 µM	
CCOC1CCN(C(=O)Nc2ccc(=O)n(C)c2)CC1	23.9 µM and 23.3 µM	0.995 µM and 1.6 µM and 2.46 µM and 3.11 µM		IC50 [4]: > 100 µM
Cl.Fc1cccc(CN2CCC(c3cc4ncccc4cn3)CC2)c1F	28.5 µM and 56.4 µM			pIC50 (Plasmodium falciparum): 6.161; IC50 (Plasmodium falciparum): 0.897 µM; IC50 [6]: 43.3 µM
Cn1cc(NC(=O)NCc2ccsc2)ccc1=O	4.72 µM and 5.06 µM	2.07 µM and 2.41 µM and 2.32 µM and 2.42 µM	> 50.1 µM	
Cc1cccc(CN2CCCCC2c2n[nH]cc2-c2cc(C)no2)c1.Cl (centres undefined)				pIC50 (Trypanosoma brucei): 4.638 and 4.693; IC50 (Trypanosoma brucei): 19.8 µM
Cn1cc(NC(=O)N2CCC(NS(C)(=O)=O)CC2)ccc1=O	52.1 µM and 49.1 µM	2.32 µM and 2.57 µM	> 50.1 µM	IC50 [3]: > 30.2 µM; IC50 [4]: > 100 µM
Cn1cc(NC(=O)N2CCC(Cc3ccccc3)CC2)ccc1=O	3.14 µM and 2.52 µM	6.79 µM and 5.48 µM		IC50 [4]: > 100 µM
Cn1cc(NC(=O)N2CCC(CN3CCCC3)CC2)ccc1=O	> 100 µM			IC50 [4]: > 100 µM
Cn1cc(NC(=O)NCc2ccoc2)ccc1=O	7.29 µM and 8.84 µM	3.44 µM and 3.04 µM	> 50.1 µM	
Cl.Fc1ccc(F)c(CN2CCC(c3cc4ncccc4cn3)CC2)c1	58.4 µM and 43.6 µM			pIC50 (Plasmodium falciparum): 6.54; IC50 (Plasmodium falciparum): 0.505 µM; IC50 [6]: > 100 µM; IC50 [7]: 27.2 µM; IC50 [8]: > 50.1 µM
NCC1Cc2cc(-c3nccc(N4CCC(O)CC4)n3)cc(Cl)c2O1 (centres undefined)	48.1 µM and 22.3 µM	20.9 µM and 21 µM		pIC50 (Plasmodium falciparum): 6.303; IC50 (Plasmodium falciparum): 0.545 µM; IC50 [3]: > 30.2 µM
Cn1cc(NC(=O)N2CCC2c2ccccc2)ccc1=O (centres undefined)	27.5 µM and 31.2 µM	7.08 µM and 6.57 µM	> 50.1 µM	IC50 [4]: > 100 µM
c1ccc(N2CCOCC3(CCCN(c4nccs4)C3)C2)nc1 (centres undefined)	> 100 µM			IC50 [5]: > 100 µM
CCCn1cc(NC(=O)c2ccncc2)ccc1=O	5.29 µM and 4 µM	3.64 µM and 3.18 µM	> 50.1 µM	
NCC1Cc2cc(-c3nccc(N4CCC(O)CC4)n3)cc(F)c2O1 (centres undefined)	20.1 µM and 18.7 µM	31.2 µM and 28.1 µM		pIC50 (Plasmodium falciparum): 6.277; IC50 (Plasmodium falciparum): 0.569 µM; IC50 [3]: > 30.2 µM
CN(Cc1ccsc1)C(=O)Nc1ccc(=O)n(C)c1	4.99 µM and 3.42 µM	4.2 µM and 4.05 µM	> 50.1 µM	
